Data reported in article doi:10.1101/2025.01.31.635529v3 (biorxiv, 2025).

Molecular target: T1, PaAtg18 (Atg18) (Ogataea angusta, UniProt Q5QA94)
T1 sequence (Q5QA94 1-525): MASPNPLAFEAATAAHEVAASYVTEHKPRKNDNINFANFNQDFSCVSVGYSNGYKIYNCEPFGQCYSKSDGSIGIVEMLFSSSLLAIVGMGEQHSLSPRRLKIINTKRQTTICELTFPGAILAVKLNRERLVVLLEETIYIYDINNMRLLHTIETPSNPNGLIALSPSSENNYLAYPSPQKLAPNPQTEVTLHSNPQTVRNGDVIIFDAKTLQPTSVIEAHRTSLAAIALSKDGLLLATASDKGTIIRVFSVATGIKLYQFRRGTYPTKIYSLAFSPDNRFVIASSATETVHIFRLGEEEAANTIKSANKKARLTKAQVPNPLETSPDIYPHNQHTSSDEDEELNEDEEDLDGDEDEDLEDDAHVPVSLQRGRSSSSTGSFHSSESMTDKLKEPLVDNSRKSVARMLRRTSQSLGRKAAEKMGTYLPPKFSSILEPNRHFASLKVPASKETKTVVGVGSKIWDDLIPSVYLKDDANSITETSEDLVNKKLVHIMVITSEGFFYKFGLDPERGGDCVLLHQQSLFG
Assay: isothermal titration calorimetry
Format: binding

Row | Kd [µM] | Structure (SMILES)
1 | 85.6 ± 23.5 | O=P(O)(O)O[C@H]1[C@H](O)[C@@H](O)[C@H](OP(=O)(O)O)[C@@H](OP(=O)(O)O)[C@H]1O [Ins(1,3,4)P3]
2 | 37.4 ± 1.3 | O=P(O)(O)O[C@H]1[C@H](O)[C@@H](OP(=O)(O)O)[C@H](O)[C@@H](OP(=O)(O)O)[C@H]1O [Ins(1,3,5)P3]
3 | 116 ± 14 | O=P(O)(O)O[C@@H]1[C@H](O)[C@H](O)[C@@H](OP(=O)(O)O)[C@H](OP(=O)(O)O)[C@H]1O [Ins(1,4,5)P3]
